Data as given in patent US20060293307A1, “Oxazolidinone derivatives as antimicrobials” (priority 2002, published 2006).
Values after ≈ are worked out from the molar mass of the structure shown.

Legend:
S. pneumoniae AB 30 = assay: MIC, agar incorporation method; format: cell-based, Streptococcus pneumoniae; conditions: S. No. 47, S. pneumoniae AB 30
E. faecium 6A (VRE) = assay: MIC, agar incorporation method; format: cell-based, Enterococcus faecium; conditions: S. No. 21, E. faecium 6A (VRE)
S. pneumoniae AB 23 = assay: MIC, agar incorporation method; format: cell-based, Streptococcus pneumoniae; conditions: S. No. 43, S. pneumoniae AB 23
S. pneumoniae AB 22 = assay: MIC, agar incorporation method; format: cell-based, Streptococcus pneumoniae; conditions: S. No. 42, S. pneumoniae AB 22
S. epidermidis 358 = assay: MIC, agar incorporation method; format: cell-based, Staphylococcus epidermidis; conditions: S. No. 14, S. epidermidis 358
Salmonella 205 = assay: MIC, agar incorporation method; format: cell-based; conditions: S. No. 26, Salmonella 205
Protocol: The compounds of the invention display antibacterial activity when tested by the agar incorporation method. The following minimum inhibitory concentrations (μg/ml) were obtained for representative compounds of the invention which are given below in the following tables.
Briefly, the compounds were dissolved in DMSO and doubling dilution of the compounds were incorporated into Meer Hilton agar before solidification. Inoculum was prepared by suspending 4 to 5 colonies into 5 ml of normal saline solution and adjusting the turbidity to 0.5 Macfarland turbidity standard tables (1.5×10^8 CFU/ml), after appropriate dilutions, 10^4 CFU/spot was transfered into the surface of dried plate and incubated for 18 hours (24 hours for MRSN studies). The concentration showing no growth of the inoculated culture was recorded as the MIC. Appropriate ATCC standard strains were simultaneously tested and result recorded only when the MIC's against standard antibiotics were within the acceptable range.

S. pneumoniae AB-2 = assay: MIC, agar incorporation method; format: cell-based, Streptococcus pneumoniae; conditions: S. No. 31, S. pneumoniae AB-2
S. pneumoniae AB-3 = assay: MIC, agar incorporation method; format: cell-based, Streptococcus pneumoniae; conditions: S. No. 32, S. pneumoniae AB-3
[1] = test system: S. epidermidis (MRSE) 23760; assay: MIC, agar incorporation method; format: cell-based, Staphylococcus epidermidis; conditions: S. No. 11, S. epidermidis (MRSE) 23760
E. faecalis SP 346 (VRE) = assay: MIC, agar incorporation method; format: cell-based; conditions: S. No. 20, E. faecalis SP 346 (VRE)
S. pneumoniae 1251 = assay: MIC, agar incorporation method; format: cell-based, Streptococcus pneumoniae; conditions: S. No. 54, S. pneumoniae 1251
S. pyogenes 25147 = assay: MIC, agar incorporation method; format: cell-based, Streptococcus pyogenes; conditions: S. No. 52, S. pyogenes 25147
K. oxytoca 49131 = assay: MIC, agar incorporation method; format: cell-based; conditions: S. No. 27, K. oxytoca 49131
E. faecalis 21777 = assay: MIC, agar incorporation method; format: cell-based; conditions: S. No. 18, E. faecalis 21777
H. influenzae 49766 = assay: MIC against Haemophilus strains; format: cell-based; conditions: s. No. 6, H. influenzae 49766
[2] = test system: S. epidermidis ATCC 12228; assay: MIC, agar incorporation method; format: cell-based, Staphylococcus epidermidis; conditions: S. No. 10, S. epidermidis ATCC 12228
S. aureus (MRSA) 15187 = assay: MIC, agar incorporation method; format: cell-based, Staphylococcus aureus; conditions: S. No. 4, S. aureus (MRSA) 15187
H. influenzae 451 = assay: MIC against Haemophilus strains; format: cell-based; conditions: s. No. 8, H. influenzae 451
S. pneumoniae 1256 = assay: MIC, agar incorporation method; format: cell-based, Streptococcus pneumoniae; conditions: S. No. 56, S. pneumoniae 1256
H. influenzae 1381 = assay: MIC against Haemophilus strains; format: cell-based; conditions: s. No. 7, H. influenzae 1381
S. pneumoniae ATCC 49619 = assay: MIC, agar incorporation method; format: cell-based, Streptococcus pneumoniae; conditions: S. No. 48, S. pneumoniae ATCC 49619
Moraxella M6 = assay: MIC, agar incorporation method; format: cell-based; conditions: S. No. 60, Moraxella M6
S. aureus (MRSA) ST450 = assay: MIC, agar incorporation method; format: cell-based, Staphylococcus aureus; conditions: S. No. 6, S. aureus (MRSA) ST450
S. epidermidis 823 = assay: MIC, agar incorporation method; format: cell-based, Staphylococcus epidermidis; conditions: S. No. 12, S. epidermidis 823

| Compound | MIC (S. pneumoniae AB 30) [µg/mL] | MIC (E. faecium 6A (VRE)) [µg/mL] | MIC (S. pneumoniae AB 23) [µg/mL] | MIC (S. pneumoniae AB 22) [µg/mL] | MIC (S. epidermidis 358) [µg/mL] | MIC (Salmonella 205) [µg/mL] | MIC (S. pneumoniae AB-2) [µg/mL] | MIC (S. pneumoniae AB-3) [µg/mL] | MIC [1] [µg/mL] | MIC (E. faecalis SP 346 (VRE)) [µg/mL] | MIC (S. pneumoniae 1251) [µg/mL] | MIC (S. pyogenes 25147) [µg/mL] | MIC (K. oxytoca 49131) [µg/mL] | MIC (E. faecalis 21777) [µg/mL] | MIC (H. influenzae 49766) [µg/mL] | MIC [2] [µg/mL] | MIC (S. aureus (MRSA) 15187) [µg/mL] | MIC (H. influenzae 451) [µg/mL] | MIC (S. pneumoniae 1256) [µg/mL] | MIC (H. influenzae 1381) [µg/mL] | also measured |
| --- | --- | --- | --- | --- | --- | --- | --- | --- | --- | --- | --- | --- | --- | --- | --- | --- | --- | --- | --- | --- | --- |
| CC(=O)NC[C@H]1CN(c2ccc(N3CCN(c4cc(C(OC(C)=O)OC(C)=O)sc4[N+](=O)[O-])CC3)c(F)c2)C(=O)O1 [Compound No. 5, (S)—N-[[3-[3-Fluoro-4-[4-{3-thienyl(2-nitro)-5-acetyloxy}methylacetate]-1-piperazinyl]phenyl]-2-oxo-5-oxazolidinyl]acetamide] | 0.5 (≈ 0.842 µM) | 2 (≈ 3.37 µM) | 0.5 (≈ 0.842 µM) | 0.5 (≈ 0.842 µM) | <0.06 | >8 | 0.25 (≈ 0.421 µM) | 0.5 (≈ 0.842 µM) | <0.06 | 2 (≈ 3.37 µM) | 0.5 (≈ 0.842 µM) | 0.5 (≈ 0.842 µM) | >8 | 1 (≈ 1.68 µM) | >16 | <0.06 | 0.25 (≈ 0.421 µM) | >16 | 0.25 (≈ 0.421 µM) | >16 | MIC (S. pneumoniae ATCC 49619): 0.5 µg/mL (≈ 0.842 µM); MIC (Moraxella M6): 2 µg/mL (≈ 3.37 µM); MIC (S. aureus (MRSA) ST450): 1 µg/mL (≈ 1.68 µM); MIC (S. epidermidis 823): <0.06 µg/mL |
| C[C@H](Cl)C(=O)NCC1CN(c2ccc(N3CCN(c4ccc([N+](=O)[O-])s4)CC3)c(F)c2)C(=O)O1 (stereo partly drawn) [Compound No. 7, (S)—N-[[3-[3-Fluoro-4-[N-1-{4-(5-nitro-2-thienyl)piperazinyl}]-phenyl]-2-oxo-5-oxazolidinyl]-methyl]-2-chloro-propionamide] | 0.5 (≈ 0.977 µM) | >8 | 1 (≈ 1.95 µM) | 1 (≈ 1.95 µM) | 2 (≈ 3.91 µM) | >8 | 0.5 (≈ 0.977 µM) | 0.5 (≈ 0.977 µM) | 4 (≈ 7.81 µM) | >8 | 1 (≈ 1.95 µM) | 2 (≈ 3.91 µM) | >8 | >8 | >16 | 1 (≈ 1.95 µM) | >8 | >16 | 0.25 (≈ 0.488 µM) | >16 | MIC (S. pneumoniae ATCC 49619): 0.5 µg/mL (≈ 0.977 µM); MIC (Moraxella M6): >8 µg/mL; MIC (S. aureus (MRSA) ST450): >8 µg/mL; MIC (S. epidermidis 823): 2 µg/mL (≈ 3.91 µM) |
